Columns and labels:
Settings in all cases: Compound concentration 1.0 uM
[1] = biological target: T1, Aurora kinase A (Homo sapiens) (UniProt O14965)
T1 sequence (whole entry): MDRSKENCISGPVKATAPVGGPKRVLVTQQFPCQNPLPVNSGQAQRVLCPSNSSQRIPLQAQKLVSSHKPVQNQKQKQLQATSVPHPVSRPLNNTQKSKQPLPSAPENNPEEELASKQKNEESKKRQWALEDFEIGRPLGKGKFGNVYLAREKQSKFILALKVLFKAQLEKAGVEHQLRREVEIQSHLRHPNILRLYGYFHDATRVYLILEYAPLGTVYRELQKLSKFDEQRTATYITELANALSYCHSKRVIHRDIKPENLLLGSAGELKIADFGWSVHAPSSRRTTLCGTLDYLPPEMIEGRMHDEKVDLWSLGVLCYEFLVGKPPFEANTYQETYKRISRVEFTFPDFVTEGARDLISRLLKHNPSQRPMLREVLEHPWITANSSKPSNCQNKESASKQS

[2] = biological target: T2, SNF-related serine/threonine-protein kinase (Homo sapiens) (UniProt Q9NRH2)
T2 sequence (whole entry): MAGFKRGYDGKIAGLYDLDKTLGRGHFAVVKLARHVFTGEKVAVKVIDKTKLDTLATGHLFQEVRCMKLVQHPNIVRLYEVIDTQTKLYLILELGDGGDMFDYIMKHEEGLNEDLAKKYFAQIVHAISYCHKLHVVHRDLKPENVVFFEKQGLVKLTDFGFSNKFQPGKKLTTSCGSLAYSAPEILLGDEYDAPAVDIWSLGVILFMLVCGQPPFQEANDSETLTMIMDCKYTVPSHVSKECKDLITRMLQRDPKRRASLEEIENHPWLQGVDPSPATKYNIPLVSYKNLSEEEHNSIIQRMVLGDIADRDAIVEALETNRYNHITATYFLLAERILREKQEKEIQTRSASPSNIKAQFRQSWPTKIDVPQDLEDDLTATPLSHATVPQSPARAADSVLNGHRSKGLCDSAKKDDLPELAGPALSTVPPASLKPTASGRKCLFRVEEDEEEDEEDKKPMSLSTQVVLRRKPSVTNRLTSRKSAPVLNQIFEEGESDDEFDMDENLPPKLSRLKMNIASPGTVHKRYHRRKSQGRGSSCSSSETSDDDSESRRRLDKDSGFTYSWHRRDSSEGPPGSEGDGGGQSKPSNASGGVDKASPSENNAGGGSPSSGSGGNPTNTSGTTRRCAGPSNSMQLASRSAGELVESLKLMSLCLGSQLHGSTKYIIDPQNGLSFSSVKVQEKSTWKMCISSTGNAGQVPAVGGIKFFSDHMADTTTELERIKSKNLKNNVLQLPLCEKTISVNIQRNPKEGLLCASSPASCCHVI

[3] = biological target: T3, Serine/threonine-protein kinase TAO2 (Homo sapiens) (UniProt Q9UL54)
T3 sequence (whole entry): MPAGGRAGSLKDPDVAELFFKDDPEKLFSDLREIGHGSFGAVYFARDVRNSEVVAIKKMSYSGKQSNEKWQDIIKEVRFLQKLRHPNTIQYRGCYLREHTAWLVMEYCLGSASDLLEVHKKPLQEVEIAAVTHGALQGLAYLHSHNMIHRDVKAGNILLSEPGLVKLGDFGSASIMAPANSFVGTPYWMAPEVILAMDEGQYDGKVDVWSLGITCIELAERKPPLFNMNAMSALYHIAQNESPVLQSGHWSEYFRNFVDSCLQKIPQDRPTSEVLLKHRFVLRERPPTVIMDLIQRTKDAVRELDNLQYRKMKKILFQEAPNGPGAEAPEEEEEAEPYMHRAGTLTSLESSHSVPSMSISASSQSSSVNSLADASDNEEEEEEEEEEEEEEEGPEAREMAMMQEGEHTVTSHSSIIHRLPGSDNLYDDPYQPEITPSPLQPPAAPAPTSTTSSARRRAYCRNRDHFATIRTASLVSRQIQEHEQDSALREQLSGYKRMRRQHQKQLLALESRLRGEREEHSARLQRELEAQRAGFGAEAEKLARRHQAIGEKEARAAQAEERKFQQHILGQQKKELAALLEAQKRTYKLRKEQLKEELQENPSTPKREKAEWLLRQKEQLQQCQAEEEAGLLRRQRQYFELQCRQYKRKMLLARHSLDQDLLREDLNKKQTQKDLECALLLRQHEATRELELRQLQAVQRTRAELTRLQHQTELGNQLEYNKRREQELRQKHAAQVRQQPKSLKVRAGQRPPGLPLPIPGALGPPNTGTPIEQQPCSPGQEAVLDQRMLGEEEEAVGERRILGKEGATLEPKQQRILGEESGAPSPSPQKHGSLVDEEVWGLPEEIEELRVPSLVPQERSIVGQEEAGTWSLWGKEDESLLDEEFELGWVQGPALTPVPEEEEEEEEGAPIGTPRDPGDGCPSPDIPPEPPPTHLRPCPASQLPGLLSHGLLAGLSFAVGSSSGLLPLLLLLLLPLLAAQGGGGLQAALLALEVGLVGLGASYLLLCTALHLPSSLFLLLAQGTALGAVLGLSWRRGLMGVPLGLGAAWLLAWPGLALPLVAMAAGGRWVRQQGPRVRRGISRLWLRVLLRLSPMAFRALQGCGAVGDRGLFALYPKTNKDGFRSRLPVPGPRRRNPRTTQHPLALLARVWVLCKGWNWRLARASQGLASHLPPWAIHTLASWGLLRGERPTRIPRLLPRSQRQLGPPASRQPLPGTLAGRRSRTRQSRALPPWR

Measured: % residual kinase activity

CN1CCN(c2cnc3c(C4CCN(C(=O)c5ccc(OC(F)(F)F)cc5N)CC4)ncnc3c2)CC1 [BAY-885]
inactive: [1] 109% | [2] 118% | [3] 113%

Source: ChEMBL document CHEMBL4507268 (2021)
